Assay results published in patent US7338950B2, “Amide compounds as ion channel ligands and uses thereof” (Renovis, Inc., priority 2003, dated 2008).

Columns and labels:
[1] = molecular target: T1, CYP1A2 (Homo sapiens, UniProt P05177); experiment: Cytochrome p450 inhibition assessment, CYP1A2; assay type: biochemical; details: estimated, Hill equation fit
T1 sequence (P05177 1-516): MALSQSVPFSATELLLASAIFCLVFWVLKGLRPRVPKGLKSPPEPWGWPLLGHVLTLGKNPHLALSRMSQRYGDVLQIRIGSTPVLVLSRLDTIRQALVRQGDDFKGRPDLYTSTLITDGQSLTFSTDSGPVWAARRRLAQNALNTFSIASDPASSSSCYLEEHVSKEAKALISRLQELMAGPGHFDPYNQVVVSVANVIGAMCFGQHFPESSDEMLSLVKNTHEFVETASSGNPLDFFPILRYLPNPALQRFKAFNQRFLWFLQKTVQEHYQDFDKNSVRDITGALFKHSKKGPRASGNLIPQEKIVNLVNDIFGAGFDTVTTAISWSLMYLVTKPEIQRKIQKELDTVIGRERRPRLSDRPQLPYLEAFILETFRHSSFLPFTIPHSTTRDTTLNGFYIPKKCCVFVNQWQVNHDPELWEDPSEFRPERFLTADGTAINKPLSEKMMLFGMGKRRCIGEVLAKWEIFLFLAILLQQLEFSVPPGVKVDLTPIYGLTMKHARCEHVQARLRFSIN
Method: (§1) The ability of test compounds to inhibit five major human cytochrome p450 isozymes was evaluated. Cytochrome p450 inhibition assays were performed on 96-well microtiter assay plates according to the protocols described in Gentest P450 inhibition instruction manuals. The assays were performed in duplicate at 8 concentrations with the upper concentration of 100 μM followed by a 1:3 serial dilution. Reactions were initiated by the addition of 100 μL of enzyme/substrate mix to 100 μL of cofactor/serial dilution mix, and terminated by addition of 75 μL of a 4:1 acentonitrile: 0.5 M Tris base solution or by 2N NaOH for CYP3A4/DBF. Fluorescence was measured using a fluorescence plate reader (FLUOstar model 403, BMG Lab Technologies, Durham, N.C.). For reactions with inhibition greater than 50%, IC50 values were determined by fitting the data to the Hill equation using software GraphPad Prism (Version 4.02, GraphPad Software, San Diego, Calif.).

[2] = molecular target: CYP2C19 (Homo sapiens, UniProt P33261); experiment: Cytochrome p450 inhibition assessment, CYP2C19; assay type: biochemical; details: estimated, Hill equation fit
Method: as §1

[3] = Plasma protein binding, equilibrium dialysis, human plasma; assay type: in vitro ADME; details: human plasma (sodium citrate), pH 7.4, 37° C., at least 22 hours, read-out: human plasma protein binding (% Bound)
Method: Membranes from Harvard/Amika with a molecular weight cutoff of 5,000 were rinsed with dH2O then placed in pH 7.4 PBS supplied by Gibco. The membranes were allowed to soak for 1 hour. A stock of the test article was pooled with Warfarin, Atropine at 2 mM in DMSO. The test article was then dosed into human plasma in sodium citrate, Rat Plasma, and Mouse Plasma to a final 10 μM concentration (0.5% DMSO v/v). The pre-soaked membranes were then placed into dialysis chambers. 500 μL of PBS was added to one side of the chamber, and 500 μL of the Matrix containing the test article was added to the other side of the chamber.
The chambers were then placed into an enclosed, heated rocker, which was pre-warmed to 37° C. and allowed to reach equilibrium for at least 22 hours. After 22 hours both sides were sampled. 100 μL of the donor side was added to 500 μL of PBS. 100 μL of the PBS side was added to 20 μL of fresh matrix. Samples then were crashed with 1:1 Acetonitrile and centrifuged at 10,000 RPM for 10 minutes. […]
Standards were prepared in a 1:5 plasma: PBS mixture at 5, 1.5, 0.5, 0.15, 0.05, 0.015 and 0.005 μM concentrations. […] Protein binding values were calculated as follows: % Bound=[(Concentration in Donor−Concentration in Receiver)/(Concentration in Donor)]×100. % Recovery=[(Concentration in donor+Concentration in Receiver)]/(Concentration in Normal Initial)]×100

[4] = molecular target: T2, VR1 receptor (capsaicin induced current in dorsal root ganglion (DRG) neurons) (Rattus norvegicus, UniProt O35433); experiment: Whole-cell patch clamp electrophysiology, capsaicin induced current in DRG neurons; assay type: cell-based; details: DRG neuron; 100 nM, treatment time 20 seconds; 500 nM capsaicin, rat DRG neurons
T2 construct: Dorsal root ganglion (DRG) neurons were recovered from either neonatal or adult rats; endogenous in cells; host or cells: primary rat dorsal root ganglion neurons
Method: Dorsal root ganglion (DRG) neurons were recovered from either neonatal or adult rats and plated onto poly-D-lysine coated glass coverslips. The plated neurons were transferred into a chamber to allow drug solutions to be added to the cells using a computer-controlled solenoid-valve based perfusion system. The cells were imaged using standard DIC optics. Cells were patched using finely-pulled glass electrodes. Voltage-clamp electrophysiology experiments were carried out using an Axon Instruments Multiclamp amplified controlled by pCLAMP8 software.
The cells were placed into a whole-cell voltage clamp and help at a voltage of −80 mV while monitoring the membrane current in gap-free recording mode. 500 nM capsaicin was added for 30 seconds as a control. Test compounds at various concentrations at ranging from (10-1000 nM) were added to the cells for 1 minute prior to a 30 second capsaicin application. Differences between control experiments and drug positive capsaicin experiments were used to determine the efficacy of each test compound. All compounds that inhibited capsaicin induced current greater than 50% were considered positives.

[5] = Pharmacokinetic profile after intravenous and oral administration; assay type: in vivo; details: male, Sprague-Dawley, rat, plasma, rats
Method: The pharmacokinetic profile of Compound 18 was evaluated following intravenous and oral administration in rats. Sprague-Dawley male rats obtained from Charles River, San Diego, Calif. were acclimated for 24 hours.
Compound 18 was formulated at a concentration of 0.5 mg/mL for IV administration at a 1 mg/kg dose and 1 mg/mL for oral administration at a 5 mg/kg dose. All animals were weighed before dosing. The body weight was used to calculate the actual dose for each animal. The intravenous dose was administered through the jugular vein catheter in less than 1 minute. The oral dose volume was 1.5 mL for all PO rats administered through oral lavage.
For IV dosing, blood samples were collected using a pre-heparinized syringe via the carotid artery catheter before dosing and at t=2, 5, 15, 30, 60, 120, 180, 360, and 480 minutes post dosing. For PO dosing, blood samples were collected using a pre-heparinized syringe via the carotid artery catheter before dosing and at t=5, 15, 30, 60, 120, 180, 360, and 480 minutes post dosing. 250 uL of blood was obtained at each time point from each animal. Equal volumes of 0.9% normal saline were replaced to prevent dehydration. The whole blood samples were maintained on ice until centrifugation. Blood samples were centrifuged at 14,000 rpm for 10 minutes at 4° C., and the upper plasma layer was transferred into a clean vial and store at −80° C.

[6] = route not stated (IV 1 mg/kg, PO 5 mg/kg)

T2 sequence (O35433 whole entry): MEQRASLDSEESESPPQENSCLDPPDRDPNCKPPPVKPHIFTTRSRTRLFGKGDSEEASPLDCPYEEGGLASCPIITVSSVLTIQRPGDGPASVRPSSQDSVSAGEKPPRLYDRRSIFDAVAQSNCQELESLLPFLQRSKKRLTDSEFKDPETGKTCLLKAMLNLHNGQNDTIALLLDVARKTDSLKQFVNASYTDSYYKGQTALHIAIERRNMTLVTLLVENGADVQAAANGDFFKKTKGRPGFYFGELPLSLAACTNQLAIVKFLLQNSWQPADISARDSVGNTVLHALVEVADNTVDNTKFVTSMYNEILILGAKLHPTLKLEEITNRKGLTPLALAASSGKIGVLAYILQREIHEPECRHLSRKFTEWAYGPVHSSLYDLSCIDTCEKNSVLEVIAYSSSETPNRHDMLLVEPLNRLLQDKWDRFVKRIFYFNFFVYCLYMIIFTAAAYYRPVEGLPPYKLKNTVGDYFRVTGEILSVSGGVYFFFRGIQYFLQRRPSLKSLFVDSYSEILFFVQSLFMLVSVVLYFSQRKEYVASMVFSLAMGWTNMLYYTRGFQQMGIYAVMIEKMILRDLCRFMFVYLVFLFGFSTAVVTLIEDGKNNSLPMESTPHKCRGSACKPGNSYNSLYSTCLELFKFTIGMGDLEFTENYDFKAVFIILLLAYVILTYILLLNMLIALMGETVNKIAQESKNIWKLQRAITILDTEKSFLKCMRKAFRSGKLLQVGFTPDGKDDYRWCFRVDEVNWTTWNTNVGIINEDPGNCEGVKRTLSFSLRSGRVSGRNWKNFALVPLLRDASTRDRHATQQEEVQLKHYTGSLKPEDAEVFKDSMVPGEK
CYP2C19, sequence (P33261 whole entry): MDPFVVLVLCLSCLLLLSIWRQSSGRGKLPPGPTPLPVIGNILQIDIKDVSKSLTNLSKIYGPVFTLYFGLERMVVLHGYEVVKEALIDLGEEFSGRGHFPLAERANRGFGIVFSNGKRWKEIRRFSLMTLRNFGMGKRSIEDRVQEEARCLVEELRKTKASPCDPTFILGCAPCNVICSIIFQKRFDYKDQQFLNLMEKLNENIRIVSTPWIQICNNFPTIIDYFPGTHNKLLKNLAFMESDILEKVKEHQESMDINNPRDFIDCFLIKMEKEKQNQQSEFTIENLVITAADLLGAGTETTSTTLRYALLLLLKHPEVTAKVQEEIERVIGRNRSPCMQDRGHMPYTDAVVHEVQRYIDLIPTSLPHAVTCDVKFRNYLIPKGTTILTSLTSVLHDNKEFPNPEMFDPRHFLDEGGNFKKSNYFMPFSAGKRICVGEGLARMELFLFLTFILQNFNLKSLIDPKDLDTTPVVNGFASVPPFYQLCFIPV

IC50 [1]: 97.5 µM
IC50 [2]: 26.9 µM
fraction unbound at 22 h, 10 µM [3]: < 0.002
inhibition at 0.1 µM [4]: < 75%
bioavailability ([5]; PO 5 mg/kg vs IV 1 mg/kg, read-out: Oral Bioavailability (% F)): 30.1%
Cmax [5, 6]: 1.75 µM
Tmax [5, 6]: 3 h
clearance ([5]; route not stated (IV 1 mg/kg, PO 5 mg/kg), read-out: Clearance (Cl) (converted)): 0.53 L/h/kg
Vd ([5]; route not stated (IV 1 mg/kg, PO 5 mg/kg), read-out: Volume of distribution (Vd)): 2.82 L/kg
half-life ([5]; route not stated (IV 1 mg/kg, PO 5 mg/kg), read-out: half life (t½) (converted)): 3.71 h
SMILES: COc1ccc(CCNC(=O)c2ccc(-c3ncccc3Cl)cc2)cc1OC [Compound 18]
